Several values for one entry are separate records, joined by “and”; a condition that tells them apart may be missing. Equal values may be shown once. One block for each compound: values may come before it.
Tests used:
Assay type in all cases: physicochemical
[1] = Release of Strecker aldehyde from 3-oxazoline precursor stirred in water at 37° C. (stable isotope dilution, HS-GC-MS / GC-MS); details: for isomer I (unreacted) (mol %) / isomer II (formed) (mol %): starting from isomer I; for isomer I (formed) (mol %) / isomer II (unreacted) (mol %): starting from isomer II
[2] = Impact of pH value on release of Strecker aldehyde from 3-oxazoline precursor in buffer solution at 37° C.
Experimental: (§1) 2-(2-Methylpropyl)-5-methyl-3-oxazoline (dissolved in pentane/diethyl ether; 2 mL) was added to ethanol (0.5 mL). The pentane/diethyl ether was carefully evaporated, and finally made up to 5 mL with ethanol. […] A control experiment was performed with 2-(2-methylpropyl)-5-methyl-3-oxazoline and the respective standard without adding the respective buffer solution. For headspace measurements, the samples were directly subjected to HS-GC-MS. For liquid measurements, the samples were cooled in an ice bath and extracted with diethyl ether (3×15 mL; liquid-liquid extraction). The organic phases were combined, dried over anhydrous sodium sulphate, and the solvent was distilled off (20° C., 500 mbar) to about 4 mL. An aliquot (2 μL) was used for the stable isotope dilution assays ((GC-) GC-MS).
as §1, with “2-Methylphenyl-5-methyl-3-oxazoline” for “2-(2-Methylpropyl)-5-methyl-3-oxazoline”, “2-methylphenyl-5-methyl-3-oxazoline” for “2-(2-methylpropyl)-5-methyl-3-oxazoline”

[3] = Headspace GC-MS release of Strecker aldehydes from spiked chocolate on addition of saliva; details: headspace injection; for Concentration in “release sample” (after addition of saliva): spiked chocolate 2 g + saliva 2 mL, 5 min at 37° C.; for Concentration in blank sample (prior addition of saliva): spiked chocolate 2 g melted at 37° C.
Experimental: To further confirm the PTR-MS data, all experiments are repeated using a headspace GC-MS system. Commercial chocolate (50% of cocoa content) was frozen in liquid nitrogen and ground to a powder using a mixer. An aliquote (25 g) was melted at 35° C. using a water bath and [^2H6]-methylpropanal, [^2H2]-3-methylbutanal as well as [^13C2]-phenylacetaldehyde were added. After stirring for 5 min, the chocolate was cooled to room temperature and used for all further headspace experiments (“spiked chocolate”). The newly spiked chocolate (2 g) was weighed into a headspace vial (10 mL; sealed with a gastight septum) containing a stirring bar. The chocolate was melted at 37° C. for 5 min under stirring. Then, the first injection (1 mL) was done at 37° C. used as blank sample. Afterwards, the sample was cooled to approx. 16° C. After 30 min, saliva (2 mL) was added through the septum via a syringe, and the sample was again warmed to 37° C. under stirring. After a further 5 min, the second injection (1 mL) was done again at 37° C. (“release sample”). All experiments were done in triplicates. 2-Methylbutanal was quantified using [^2H2]-3-methylbutanal.

[4] = PTR-MS release of Strecker aldehydes from spiked chocolate on addition of water or saliva; details: spiked chocolate 5 g, water (5 mL, pH 4) or saliva (5 mL), 37° C.; FIG. 2, FIG. 3
Experimental: Commercial chocolate (50% of cocoa content) was frozen in liquid nitrogen and ground to a powder using a mixer. An aliquote (50 g) was melted at 35° C. using a water bath and [^2H2]-3-methylbutanal as well as [^13C2]-phenylacetaldehyde were added. After stirring for 5 min, the chocolate was cooled to room temperature and used for all further PTR-MS experiments (“spiked chocolate”).
5.0 g of spiked chocolate was weighed into an iodine flask (200 mL; sealed with a gastight septum) containing a stirring bar. The chocolate was melted at 37° C. for 5 min under stirring. Afterwards, the flask was connected to a PTR-MS instrument via a peek capillary (experiments were done at 37° C.). After defined time (details are given in the respective figures via number of cycles), water (5 mL, pH 4) or saliva (5 mL), respectively, was singly added through the septum via a syringe.
As blank, methylpropanal (2.5 μg), 3-methylbutanal (6.25 μg), phenylacetaldehyde (25 μg), [^2H2]-3-methylbutanal (4.3 μg), and [^13C2]-phenylacetaldehyde (20 μg) were added to sunflower oil (10 g) in an iodine flask (200 mL). Following parameters are used for PTR-MS measurement: inlet temperature 120° C., chamber temperature 80° C., inlet flow 70 mL/min. The mass traces and the dwell time used to monitor Strecker aldehydes are shown below: […]

[5] = 5 min, stirred in water at 37° C.
[6] = 15 min, stirred in water at 37° C.
[7] = 30 min, stirred in water at 37° C.
[8] = Control experiment without addition of water
[9] = Control without addition of water
[10] = Control experiment without addition of water, in relation to amount of precursor used

SMILES: CC(C)CC1N=CC(C)O1 (single isomer, unassigned) [2-(2-methylpropyl)-5-methyl-3-oxazoline isomer I, 2-(2-methylpropyl)-5-methyl-3-oxazoline]
- 3-methylbutanal (mol %) generated from precursor [1, 5]: 72.7 mol %
- isomer I (unreacted) (mol %) ([1]; 5 min, water 37° C.): 16.2 mol %
- isomer II (formed) (mol %) ([1]; 5 min, water 37° C.): 5.1 mol %
- 3-methylbutanal released / precursor converted to Strecker aldehyde ([1]; 5 min after addition of water at 37° C.): 73%
- 3-methylbutanal (mol %) generated from precursor [1, 6]: 82.4 mol %
- isomer I (unreacted) (mol %) ([1]; 15 min, water 37° C.): 8.4 mol %
- isomer II (formed) (mol %) ([1]; 15 min, water 37° C.): 10.2 mol %
- 3-methylbutanal (mol %) generated from precursor [1, 7]: 91.1 mol %
- isomer I (unreacted) (mol %) ([1]; 30 min, water 37° C.): 2.9 mol %
- isomer II (formed) (mol %) ([1]; 30 min, water 37° C.): 4.3 mol %
- 3-methylbutanal (mol %) generated from precursor [1, 10]: 0.3 mol %
- isomer I (unreacted) (mol %) [1, 9]: 98.1 mol %
- isomer II (formed) (mol %) [1, 9]: 1.9 mol %
- corresponding isomer II formed from purified isomer I ([1]; after 5 min, water 37° C.): 5%
- 3-methylbutanal released ([1]; after 15 min, water 37° C.): > 80%
- 3-methylbutanal released ([1]; after 30 min, water 37° C.): > 90% and 91%

SMILES: O=CCc1ccccc1 [phenylacetaldehyde]
- Concentration in “release sample” (after addition of saliva) [3]: < LoD (due to headspace
- Concentration in blank sample (prior addition of saliva) [3]: < LoD (due to headspace
- release from spiked chocolate after addition of water or saliva (PTR-MS) [4]: clearly increased

SMILES: CC(C)CC1N=CC(C)O1 (single isomer, unassigned) [2-(2-methylpropyl)-5-methyl-3-oxazoline isomer II, 2-(2-methylpropyl)-5-methyl-3-oxazoline]
- 3-methylbutanal (mol %) generated from precursor [1, 5]: 72.5 mol %
- isomer I (formed) (mol %) ([1]; 5 min, water 37° C.): 3.0 mol %
- isomer II (unreacted) (mol %) ([1]; 5 min, water 37° C.): 25.7 mol %
- 3-methylbutanal (mol %) generated from precursor [1, 6]: 81.4 mol %
- isomer I (formed) (mol %) ([1]; 15 min, water 37° C.): 3.7 mol %
- isomer II (unreacted) (mol %) ([1]; 15 min, water 37° C.): 16.7 mol %
- 3-methylbutanal (mol %) generated from precursor [1, 7]: 92.2 mol %
- isomer I (formed) (mol %) ([1]; 30 min, water 37° C.): 2.2 mol %
- isomer II (unreacted) (mol %) ([1]; 30 min, water 37° C.): 7.2 mol %
- 3-methylbutanal (mol %) generated from precursor [1, 10]: 0.4 mol %
- isomer I (formed) (mol %) [1, 9]: 1.7 mol %
- isomer II (unreacted) (mol %) [1, 9]: 98.3 mol %

SMILES: CC(C)C=O [methylpropanal]
- Concentration in “release sample” (after addition of saliva) [3]: 1103 μg/kg of chocolate
- Concentration in blank sample (prior addition of saliva) [3]: 25.4 μg/kg of chocolate
- release from spiked chocolate after addition of water or saliva (PTR-MS) [4]: clearly increased

SMILES: CCC(C)C=O (centres unmarked) [2-methylbutanal]
- Concentration in “release sample” (after addition of saliva) [3]: 3009 μg/kg of chocolate
- Concentration in blank sample (prior addition of saliva) [3]: 354 μg/kg of chocolate
- release from spiked chocolate after addition of water or saliva (PTR-MS) [4]: clearly increased

Second part, the compound after the results:

- phenylacetaldehyde (mol %) generated from precursor [1, 5]: 16.6 mol %
- isomer I (unreacted) (mol %) ([1]; 5 min, water 37° C.): 31.8 mol %
- isomer II (formed) (mol %) ([1]; 5 min, water 37° C.): 7.1 mol %
- phenylacetaldehyde (mol %) generated from precursor [1, 6]: 23.1 mol %
- isomer I (unreacted) (mol %) ([1]; 15 min, water 37° C.): 31.1 mol %
- isomer II (formed) (mol %) ([1]; 15 min, water 37° C.): 6.3 mol %
- phenylacetaldehyde (mol %) generated from precursor [1, 7]: 42.5 mol %
- isomer I (unreacted) (mol %) ([1]; 30 min, water 37° C.): 22.3 mol %
- isomer II (formed) (mol %) ([1]; 30 min, water 37° C.): 5.8 mol %
- phenylacetaldehyde (mol %) generated from precursor [1, 8]: 0.2 mol %
- isomer I (unreacted) (mol %) [1, 9]: 98.0 mol %
- isomer II (formed) (mol %) [1, 9]: 2.0 mol %
- corresponding isomer II formed from purified isomer I ([1]; after 5 min, water 37° C.): 7%
- phenylacetaldehyde liberated ([1]; after 5 min, water 37° C.): 17%
- phenylacetaldehyde liberated ([1]; after 15 min, water 37° C.): > 20%
- phenylacetaldehyde liberated ([1]; after 30 min, water 37° C.): > 40% and 43%
SMILES: Cc1ccccc1C1N=CC(C)O1 (single isomer, unassigned; isomer i) [2-methylphenyl-5-methyl-3-oxazoline isomer I, 2-methylphenyl-5-methyl-3-oxazoline]

- methylpropanal (mol %) generated from precursor [1, 5]: 46.0 mol %
- methylpropanal (mol %) generated from precursor [1, 6]: 53.5 mol %
- methylpropanal (mol %) generated from precursor [1, 7]: 56.1 mol %
- methylpropanal (mol %) generated from precursor [1, 8]: 0.1 mol %
SMILES: CC1C=NC(C(C)C)O1 (single isomer, unassigned) [2-(1-methylethyl)-5-methyl-3-oxazoline]

- phenylacetaldehyde (mol %) generated from precursor ([2]; pH 5, Control without addition of buffer solution): 0.4 mol %
- phenylacetaldehyde (mol %) generated from precursor ([2]; pH 5 buffer, 5 min, 37° C.): 41.2 mol %
- phenylacetaldehyde (mol %) generated from precursor ([2]; pH 5 buffer, 15 min, 37° C.): 72.1 mol %
- phenylacetaldehyde (mol %) generated from precursor ([2]; pH 5 buffer, 30 min, 37° C.): 87.7 mol %
- phenylacetaldehyde (mol %) generated from precursor ([2]; pH 7, Control without addition of buffer solution): 0.3 mol %
- phenylacetaldehyde (mol %) generated from precursor ([2]; pH 7 buffer, 5 min, 37° C.): 7.7 mol %
- phenylacetaldehyde (mol %) generated from precursor ([2]; pH 7 buffer, 15 min, 37° C.): 18.0 mol %
- phenylacetaldehyde (mol %) generated from precursor ([2]; pH 7 buffer, 30 min, 37° C.): 30.2 mol %
- phenylacetaldehyde (mol %) generated from precursor ([2]; pH 9, Control without addition of buffer solution): 0.3 mol %
- phenylacetaldehyde (mol %) generated from precursor ([2]; pH 9 buffer, 5 min, 37° C.): 4.9 mol %
- phenylacetaldehyde (mol %) generated from precursor ([2]; pH 9 buffer, 15 min, 37° C.): 7.1 mol %
- phenylacetaldehyde (mol %) generated from precursor ([2]; pH 9 buffer, 30 min, 37° C.): 14.3 mol %
SMILES: Cc1ccccc1C1N=CC(C)O1 (centres unmarked) [2-methylphenyl-5-methyl-3-oxazoline]

- phenylacetaldehyde (mol %) generated from precursor [1, 5]: 17.2 mol %
- phenylacetaldehyde (mol %) generated from precursor ([1]; 5 min, stirred in water at 37° C., listed as 2-methylphenyl-5-methyl-2-oxazoline isomer II): 17.2 mol %
- isomer I (formed) (mol %) ([1]; 5 min, water 37° C.): 9.0 mol %
- isomer II (unreacted) (mol %) ([1]; 5 min, water 37° C.): 28.6 mol %
- phenylacetaldehyde (mol %) generated from precursor [1, 6]: 32.2 mol %
- phenylacetaldehyde (mol %) generated from precursor ([1]; 15 min, stirred in water at 37° C., listed as 2-methylphenyl-5-methyl-2-oxazoline isomer II): 32.2 mol %
- isomer I (formed) (mol %) ([1]; 15 min, water 37° C.): 5.4 mol %
- isomer II (unreacted) (mol %) ([1]; 15 min, water 37° C.): 26.0 mol %
- phenylacetaldehyde (mol %) generated from precursor [1, 7]: 46.5 mol %
- phenylacetaldehyde (mol %) generated from precursor ([1]; 30 min, stirred in water at 37° C., listed as 2-methylphenyl-5-methyl-2-oxazoline isomer II): 46.5 mol %
- isomer I (formed) (mol %) ([1]; 30 min, water 37° C.): 2.7 mol %
- isomer II (unreacted) (mol %) ([1]; 30 min, water 37° C.): 20.2 mol %
- phenylacetaldehyde (mol %) generated from precursor [1, 8]: 0.3 mol %
- phenylacetaldehyde (mol %) generated from precursor ([1]; Control experiment without addition of water, listed as 2-methylphenyl-5-methyl-2-oxazoline isomer II): 0.3 mol %
- isomer I (formed) (mol %) [1, 9]: 1.8 mol %
- isomer II (unreacted) (mol %) [1, 9]: 98.2 mol %
SMILES: Cc1ccccc1C1N=CC(C)O1 (single isomer, unassigned; isomer ii) [2-methylphenyl-5-methyl-3-oxazoline isomer II, 2-methylphenyl-5-methyl-3-oxazoline]

- 2-methylbutanal (mol %) generated from precursor [1, 5]: 14.6 mol %
- 2-methylbutanal (mol %) generated from precursor [1, 6]: 33.3 mol %
- 2-methylbutanal (mol %) generated from precursor [1, 7]: 55.6 mol %
- 2-methylbutanal (mol %) generated from precursor [1, 8]: 1.1 mol %
SMILES: CCC(C)C1N=CC(C)O1 (single isomer, unassigned) [2-(1-methylpropyl)-5-methyl-3-oxazoline]

- Concentration in “release sample” (after addition of saliva) [3]: 4456 μg/kg of chocolate
- Concentration in blank sample (prior addition of saliva) [3]: 502 μg/kg of chocolate
- release from spiked chocolate after addition of water or saliva (PTR-MS) [4]: clearly increased
SMILES: CC(C)CC=O [3-methylbutanal]

From patent publication US20150044346A1, “USE OF OXAZOLINES AS AROMA/FLAVOUR PRECURSORS” (NESTEC S.A., priority 2012, published 2015)
